Source: ChEMBL document CHEMBL4138198, “Synthesis of new 1-benzyl tetrahydropyridinylidene ammonium salts and their antimicrobial and anticellular activities” (Eur J Med Chem, 2018)

How the values were obtained:
L6 = test: Cytotoxicity against rat L6 cells after 70 hrs by Alamar blue staining-based fluorometric analysis; assay type: cell-based; conditions: L6, 70 h, read-out: IC50
[1] = Selectivity index, ratio of IC50 for rat L6 cells to IC50 for erythrocytic stage of Plasmodium falciparum NF54; assay type: toxicity; conditions: read-out: Ratio IC50
[2] = Selectivity index, ratio of IC50 for rat L6 cells to IC50 for Trypanosoma brucei rhodesiense STIB900 bloodstream forms; assay type: toxicity; conditions: read-out: Ratio IC50
[3] = Growth inhibition of human MRC5 cells at 140 uM after 72 hrs by XTT assay relative to control; assay type: cell-based; conditions: read-out: GI
Plasmodium berghei [4] = test: Antiplasmodial activity against GFP expressing Plasmodium berghei ANKA infected in NMRI mouse assessed as reduction in parasitemia at 10 mg/kg, ip administered 4 hrs, 24 hrs, 48 hrs, 72 hrs post infection for 4 days and measured 72 hrs post infection by FACS analysis relative to control; assay type: functional; design: scale not given: the % may be the effect or the level left
Plasmodium falciparum = test: Antimalarial activity against erythrocytic stage of Plasmodium falciparum NF54 assessed as inhibition of [3H]-hypoxanthine incorporation after 48 hrs by liquid scintillation counting analysis; assay type: functional, organism-based
[5] = test system: Trypanosoma brucei rhodesiense; test: Antitrypanosomal activity against Trypanosoma brucei rhodesiense STIB900 bloodstream forms after 70 hrs by Alamar blue staining-based fluorometric analysis; assay type: functional, organism-based; conditions: STIB900, 70 h
Plasmodium berghei [6] = test: Antiplasmodial activity against GFP expressing Plasmodium berghei ANKA infected in NMRI mouse assessed as mouse mean survival days at 10 mg/kg, ip administered 4 hrs, 24 hrs, 48 hrs, 72 hrs post infection for 4 days and measured 72 hrs post infection by FACS analysis (reference value: 4 days); assay type: functional
Candida parapsilosis = test: Antimicrobial activity against Candida parapsilosis ATCC 90018 assessed as zone of inhibition at 50 ug per disc after 48 hrs by disc diffusion assay; assay type: functional; conditions: Lodderomyces parapsilosis, ATCC 90018, 48 h; read-out: DIZ
Klebsiella oxytoca = test: Antimicrobial activity against Klebsiella oxytoca ATCC 8724 assessed as zone of inhibition at 50 ug per disc after 24 hrs by disc diffusion assay; assay type: functional; conditions: ATCC 8724, 24 h, read-out: DIZ
[7] = test system: Staphylococcus epidermidis; test: Antimicrobial activity against Staphylococcus epidermidis ATCC 12228 assessed as zone of inhibition at 50 ug per disc after 24 hrs by disc diffusion assay; assay type: functional; conditions: ATCC 12228, 24 h, read-out: DIZ
Staphylococcus aureus = test: Antimicrobial activity against Staphylococcus aureus subsp. aureus ATCC 25923 assessed as zone of inhibition at 50 ug per disc after 24 hrs by disc diffusion assay; assay type: functional; conditions: ATCC 25923, 24 h, read-out: DIZ
Pseudomonas aeruginosa = test: Antimicrobial activity against Pseudomonas aeruginosa ATCC 27853 assessed as zone of inhibition at 50 ug per disc after 24 hrs by disc diffusion assay; assay type: functional; conditions: ATCC 27853, 24 h, read-out: DIZ
[8] = Growth inhibition of human MRC5 cells at 120 uM after 72 hrs by XTT assay relative to control; assay type: cell-based; conditions: read-out: GI
Escherichia coli = test: Antimicrobial activity against Escherichia coli ATCC 25922 assessed as zone of inhibition at 50 ug per disc after 24 hrs by disc diffusion assay; assay type: functional; conditions: ATCC 25922, 24 h, read-out: DIZ
[9] = test system: Mycolicibacterium smegmatis; test: Antimycobacterial activity against Mycobacterium smegmatis ATCC 14468 after 72 hrs by MTT dye-based microbroth dilution assay; assay type: functional; conditions: ATCC 14468, 72 h
Candida tropicalis = test: Antimicrobial activity against Candida tropicalis ATCC 13803 assessed as zone of inhibition at 50 ug per disc after 48 hrs by disc diffusion assay; assay type: functional; conditions: ATCC 13803, 48 h, read-out: DIZ
Bacillus subtilis = test: Antimicrobial activity against Bacillus subtilis subsp. subtilis ATCC 6051 assessed as zone of inhibition at 50 ug per disc after 24 hrs by disc diffusion assay; assay type: functional; conditions: subsp. subtilis ATCC 6051, 24 h, read-out: DIZ
Candida albicans = test: Antimicrobial activity against Candida albicans ATCC 10231 assessed as zone of inhibition at 50 ug per disc after 48 hrs by disc diffusion assay; assay type: functional; conditions: ATCC 10231, 48 h, read-out: DIZ
[10] = Growth inhibition of human MRC5 cells at 117 uM after 72 hrs by XTT assay relative to control; assay type: cell-based; conditions: read-out: GI
[11] = Growth inhibition of human MRC5 cells assessed as metabolic active cells level at 123.3 uM after 72 hrs by XTT assay relative to control; assay type: ADME, cell-based; conditions: read-out: Activity

Row | Compound | IC50 (L6) [µM] | selectivity ratio [1] | selectivity ratio [2] | IC50 (Plasmodium falciparum) [µM] | IC50 [5] [µM] | also measured
1 | CC1(C)CC(=[N+]2CCCC2)C=CN1Cc1ccc2ccccc2n1.[Cl-] | 125 | 1390 | 7.53 | 0.09 | 16.6 | inhibition at 72 h, 140 µM [3]: 27 to 56%; Activity (Plasmodium berghei [4]): 0%; MSD (Plasmodium berghei [6]): 3 days
2 | CC(C)c1ccc(CN2C=CC(=[N+]3CCCC3)CC2(C)C)cc1 | 0.176 | 11.7 | 0.054 | 0.015 | 3.24 | 
3 | CC1(C)CC(=[N+]2CCCC2)C=CN1Cc1ccc(C(F)(F)F)cc1.[Br-] | 125 | 3480 | 4.6 | 0.036 | 27.2 | zone of inhibition at 50 µg/disc (Candida parapsilosis): 0 mm; zone of inhibition at 50 µg/disc (Klebsiella oxytoca): 7 mm; zone of inhibition at 50 µg/disc [7]: 18 mm; zone of inhibition at 50 µg/disc (Staphylococcus aureus): 8 mm; zone of inhibition at 50 µg/disc (Pseudomonas aeruginosa): 0 mm; inhibition at 72 h, 120 µM [8]: 27 to 56%; zone of inhibition at 50 µg/disc (Escherichia coli): 0 mm; MIC [9]: 64 µg/mL; Activity (Plasmodium berghei [4]): 54.2%; zone of inhibition at 50 µg/disc (Candida tropicalis): 15 mm; MSD (Plasmodium berghei [6]): 7 days; zone of inhibition at 50 µg/disc (Bacillus subtilis): 10 mm; zone of inhibition at 50 µg/disc (Candida albicans): 15 mm
4 | CC1(C)CC(=[N+]2CCCC2)C=CN1Cc1cccc2ccccc12 | 0.61 | 9.68 | 0.69 | 0.063 | 0.89 | 
5 | CC1(C)CC(=[N+]2CCCC2)C=CN1Cc1ccc(Br)cc1.[Br-] | 11.6 | 445 | 0.8 | 0.026 | 14.5 | inhibition at 72 h, 117 µM [10]: 27 to 56%; Activity (Plasmodium berghei [4]): 48.1%; MSD (Plasmodium berghei [6]): 4 days
6 | Cc1ccc(CN2C=CC(=[N+]3CCCC3)CC2(C)C)cc1 | 94.9 | 949 | 22.4 | 0.1 | 4.24 | 
7 | COc1cc(CN2C=CC(=[N+]3CCCC3)CC2(C)C)cc(OC)c1OC | 192 | 174 | 11.8 | 1.1 | 16.2 | 
8 | CC1(C)CC(=[N+]2CCCC2)C=CN1Cc1ccccc1Cl | 9.73 | 81.1 | 0.93 | 0.12 | 10.5 | 
9 | CC1(C)CC(=[N+]2CCCC2)C=CN1Cc1ccccn1 | > 327 | > 150 | > 3.26 | 2.18 | 100 | 
10 | CC(C)(C)c1ccc(CN2C=CC(=[N+]3CCCC3)CC2(C)C)cc1 | 0.017 | 0.43 | 0.025 | 0.04 | 0.67 | viability at 72 h, 123.3 µM [11]: 0 to 10%
11 | CC1(C)CC(=[N+]2CCCC2)C=CN1Cc1ccccc1C#N | > 267 | > 245 | > 3.77 | 1.09 | 70.9 | 
12 | CC1(C)CC(=[N+]2CCCC2)C=CN1Cc1ccc(Cl)cc1Cl | 2.99 | 69.5 | 0.23 | 0.043 | 12.8 | 
13 | CC1(C)CC(=[N+]2CCCC2)C=CN1c1ccccc1 |  |  |  | 0.36 |  | 
14 | CC1(C)CC(=[N+]2CCCC2)C=CN1Cc1ccccc1 | 12.3 | 94.8 | 0.2 | 0.13 | 61.6 | 
